Data published in patent US7993884B2, “Beta-xylosidase for conversion of plant cell wall carbohydrates to simple sugars” (The United States of America as represented by the …, priority 2006, dated 2011).
Values joined by “and” are separate entries in the source; they are usually repeats but may differ in a detail not shown here. Equal values may be shown once. Read-outs that look alike come from different tables or passages of the source.

How the values were obtained:
SXA [1] = target: T1, SXA (Selenomonas ruminantium, UniProt O52575); assay: SXA-catalyzed hydrolysis of 4NP-glycoside substrates, initial rates (Methods A and B); assay type: biochemical; conditions: for Relative Rate: 5 mM 4NP glycoside, 100 mM succinate-NaOH, pH 5.3, 25° C., Method A, initial rate relative to 4NPX;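 as to all read-outs here: initial rates from 4-nitrophenol release, tracked by absorbance over roughly 0.3 min and converted using product-minus-substrate extinction differences, in 1 mL mixtures started by enzyme addition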
[2] = target: T2, Selenomonas ruminantium GA192 β-D-xylosidase (SXA), wild type, SEQ ID NO: 2 (Pseudoselenomonas ruminantium, UniProt O52575); assay: Steady-state kinetics of SXA with 4NPX2, A2 and X2-X6 by HPLC (Example 1)
SXA [3] = target: T1, SXA; conditions: for Km: 100 mM succinate-NaOH, pH 5.3, 25° C. (Example 1)
SXA [4] = target: T1, SXA; conditions: for Km / kcat: 100 mM succinate-NaOH, improved quench (Example 3); for Km / kcat / kcat lower than previous determination (Example 1) / kcat/Km lower than previous determination (Example 1): pH 5.3, 25° C.; for factor by which kcat of SXA is higher than that of the Bacillus pumilus enzyme: SXA pH 5.3, 25° C. vs B. pumilus pH 7.15, 25° C.
[5] = target: T2, Selenomonas ruminantium GA192 β-D-xylosidase (SXA), wild type, SEQ ID NO: 2; assay: Steady-state kinetics of SXA with X2-X6, improved quenching, HPLC (Example 3); conditions: for factor by which kcat is higher than that of the Bacillus pumilus enzyme: SXA pH 5.3 vs B. pumilus pH 7.15, 25° C
[6] = substrate: O=[N+]([O-])c1ccc(O[C@@H]2OC[C@@H](O)[C@H](O)[C@H]2O)cc1; assay: purified protein, by the assay type; conditions: other: 100 mM succinate-NaOH, pH 5.3, 25° C, Method A
[7] = 100 mM succinate-NaOH, pH 5.3, 25° C
[8] = hydrolysis of X6, pH 5.30, 25° C.
[9] = pH 5.3, 25° C (improved technique), approximate
[10] = pH 5.3, 25° C (Example 1), approximate

## O=[N+]([O-])c1ccc(O[C@H]2O[C@H](CO)[C@@H](O)[C@H](O)[C@H]2O)cc1 [4-Nitrophenyl-α D-glucopyranoside]
SXA [1]
  Relative Rate: <10^−6

## O=[N+]([O-])c1ccc(O[C@H]2O[C@H](CO)[C@H](O)[C@H](O)[C@H]2O)cc1 [4-Nitrophenyl-α-D-galactopyranoside]
SXA [1]
  Relative Rate: <10^−6

## O=[N+]([O-])c1ccc(O[C@H]2O[C@H](CO)[C@@H](O)[C@H](O)[C@@H]2O)cc1 [4-Nitrophenyl-α-D-mannopyranoside]
SXA [1]
  Relative Rate: <10^−6

## O=[N+]([O-])c1ccc(O[C@H]2OC[C@@H](O)[C@H](O)[C@H]2O)cc1 [4-Nitrophenyl-α-D-xylopyranoside]
SXA [1]
  Relative Rate: <10^−6

## O=[N+]([O-])c1ccc(O[C@@H]2OC[C@H](O)[C@H](O)[C@H]2O)cc1 [4-Nitrophenyl-α-L-arabinopyranoside]
SXA [1]
  Relative Rate: <10^−6

## C[C@@H]1O[C@@H](Oc2ccc([N+](=O)[O-])cc2)[C@@H](O)[C@H](O)[C@@H]1O [4-Nitrophenyl-α-L-fucopyranoside]
SXA [1]
  Relative Rate: <10^−6

## C[C@@H]1O[C@@H](Oc2ccc([N+](=O)[O-])cc2)[C@H](O)[C@H](O)[C@H]1O [4-Nitrophenyl-α-L-rhamnopyranoside]
SXA [1]
  Relative Rate: <10^−6

## C[C@H]1O[C@@H](Oc2ccc([N+](=O)[O-])cc2)[C@H](O)[C@@H](O)[C@H]1O [4-Nitrophenyl-β-D-fucopyranoside]
SXA [1]
  Relative Rate: <10^−6

## O=[N+]([O-])c1ccc(O[C@@H]2O[C@H](CO)[C@H](O)[C@H](O)[C@H]2O)cc1 [4-Nitrophenyl-β-D-galactopyranoside]
SXA [1]
  Relative Rate: <10^−6

## O=[N+]([O-])c1ccc(O[C@@H]2O[C@H](CO)[C@@H](O)[C@H](O)[C@H]2O)cc1 [4-Nitrophenyl-β-D-glucopyranoside]
SXA [1]
  Relative Rate: <10^−6

## O=[N+]([O-])c1ccc(O[C@@H]2O[C@H](CO)[C@@H](O)[C@H](O)[C@@H]2O)cc1 [4-Nitrophenyl-β-D-mannopyranoside]
SXA [1]
  Relative Rate: <10^−6

## O=[N+]([O-])c1ccc(O[C@H]2OC[C@H](O)[C@H](O)[C@H]2O)cc1 [4-Nitrophenyl-β-L-arabinopyranoside]
SXA [1]
  Relative Rate: <10^−6
SXA [1]; reaction conditions of Table 2, later attributed to a contaminant
  rate relative to that of 4NPX, first inspection: less than 0.1%

## C[C@@H]1O[C@H](Oc2ccc([N+](=O)[O-])cc2)[C@@H](O)[C@H](O)[C@@H]1O [4-Nitrophenyl-β-fucopyranoside]
SXA [1]
  Relative Rate: <10^−6

## OC[C@@H]1O[C@@H](OC[C@@H]2OC(O)[C@H](O)[C@H]2O)[C@H](O)[C@H]1O (stereo partly drawn) [A2, 1,5-α-L-arabinobiose]
[2]
  factor by which kcat is reduced vs X2: 5600 fold
[2]; [7]
  kcat: 0.074 ± 0.003 s⁻¹
[2]; 4NPA larger / A2 reduced
  kcat factor between 4NPA and A2: 36 fold
[2]; pH 5.3, 25° C, A2 = 1
  relative kcat value: 1
SXA [3]
  Km: 1200 ± 100 µM
SXA [3]; pH 5.3, 25° C.
  factor by which kcat is reduced in comparison to 4NPA: 36
  factor by which kcat is reduced in comparison to X2: 5600
SXA [3]; pH 5.3 and 25° C., relative to A2
  relative kcat values: 1

## OC1OC[C@@H](O[C@@H]2OC[C@@H](O[C@@H]3OC[C@@H](O)[C@H](O)[C@H]3O)[C@H](O)[C@H]2O)[C@H](O)[C@H]1O (stereo partly drawn) [X3, 1,4-β-D-xylotriose]
[2]; [7]
  kcat: 172 s⁻¹ and 172 ± 14 s⁻¹
SXA [3]
  Km: 3800 µM
SXA [3]; hydrolysis of X4, pH 5.30, 25° C.
  time of peak height of intermediate product, observed: 4130 s
SXA [3]; [8]
  time of peak height of intermediate product, observed: 10822 s
SXA [4]
  pH-independent kcat: 98.0±2.3
  Km: 2120 ± 100 µM
  kcat: approximately 95.1 s^−1
  factor by which kcat of SXA is higher than that of the Bacillus pumilus enzyme: 32
  kcat lower than previous determination (Example 1): 45%
  kcat/Km lower than previous determination (Example 1): 1%
SXA [4]; Eq. 6, I=0.3 M, 25° C.
  pKa1 of kcat versus pH: 3.21
  pKa1 of kcat/Km versus pH: 4.80±0.06
  pKa2 of kcat versus pH: 7.53±0.06
  pKa2 of kcat/Km versus pH: 7.30±0.04
SXA [4]; Eq. 6, I=0.3 M, 25° C., listed as 1,4-β-D-xylotriose
  pKa1 of kcat versus pH: 3.21±0.27
SXA [4]; Eq. 7, I=0.3 M, 25° C.
  pKa1 of 1/Km versus pH: 4.76±0.05
  pKa2 of 1/Km versus pH: 7.76±0.14
SXA [4]; from pH dependencies of 1/Km
  lower affinity of dianionic SXA (D14^−E186^−) than monoanionic SXA (D14^−E186^H): 3.1 fold and 3 fold
SXA [4]; kcat/Km versus pH, Eq. 6, I=0.3 M, 25° C. (FIG. 20)
  pH-independent kcat/Km: 58.9±3.3 mM^−1s^−1
[5]; [7]
  kcat: 95.1 ± 1.5 s⁻¹
[5]
  factor by which kcat is higher than that of the Bacillus pumilus enzyme: 32
[5]; from pH dependence of 1/Km
  affinity of dianionic SXA (D14^−E186^−), lower than that of monoanionic SXA (D14^−E186^H): 3.1 fold and 3 fold
[5]; [9]
  kcat: approximately 95.1 sec^−1
[5]; pH profile, I=0.3 M, 25° C
  pH-independent kcat: 98.0±2.3

## OC1OC[C@@H](O[C@@H]2OC[C@@H](O[C@@H]3OC[C@@H](O[C@@H]4OC[C@@H](O)[C@H](O)[C@H]4O)[C@H](O)[C@H]3O)[C@H](O)[C@H]2O)[C@H](O)[C@H]1O (stereo partly drawn) [X4, 1,4-β-D-xylotetraose]
[2]; [7]
  kcat: 150 s⁻¹ and 150 ± 5 s⁻¹
[2]; [10]
  kcat: approximately 150 sec^−1
SXA [3]
  Km: 4000 µM
SXA [3]; [8]
  time of peak height of intermediate product, observed: 8260 s
SXA [4]
  Km: 2750 ± 230 µM
  kcat: approximately 91.6 s^−1
  factor by which kcat of SXA is higher than that of the Bacillus pumilus enzyme: 31
  kcat lower than previous determination (Example 1): 39%
  kcat/Km lower than previous determination (Example 1): 12%
[5]; [7]
  kcat: 91.6 ± 2.3 s⁻¹
[5]
  factor by which kcat is higher than that of the Bacillus pumilus enzyme: 31
[5]; [9]
  kcat: approximately 91.6 sec^−1

## OC1OC[C@@H](O[C@@H]2OC[C@@H](O[C@@H]3OC[C@@H](O[C@@H]4OC[C@@H](O[C@@H]5OC[C@@H](O)[C@H](O)[C@H]5O)[C@H](O)[C@H]4O)[C@H](O)[C@H]3O)[C@H](O)[C@H]2O)[C@H](O)[C@H]1O (stereo partly drawn) [X5, 1,4-β-D-xylopentaose]
[2]; [7]
  kcat: 150 s⁻¹ and 150 ± 15 s⁻¹
[2]; [10]
  kcat: approximately 150 sec^−1
SXA [3]
  Km: 3700 µM
SXA [3]; [8]
  time of peak height of intermediate product, observed: 3138 s
SXA [4]
  Km: 2860 ± 380 µM
  kcat: approximately 77.2 s^−1
  factor by which kcat of SXA is higher than that of the Bacillus pumilus enzyme: 20
  kcat lower than previous determination (Example 1): 49%
  kcat/Km lower than previous determination (Example 1): 34%
[5]; [7]
  kcat: 77.2 ± 3.6 s⁻¹
[5]
  factor by which kcat is higher than that of the Bacillus pumilus enzyme: 20
[5]; [9]
  kcat: approximately 77.2 sec^−1

## OC1OC[C@@H](O[C@@H]2OC[C@@H](O[C@@H]3OC[C@@H](O[C@@H]4OC[C@@H](O[C@@H]5OC[C@@H](O[C@@H]6OC[C@@H](O)[C@H](O)[C@H]6O)[C@H](O)[C@H]5O)[C@H](O)[C@H]4O)[C@H](O)[C@H]3O)[C@H](O)[C@H]2O)[C@H](O)[C@H]1O (stereo partly drawn) [X6, 1,4-β-D-xylohexaose]
[2]; [7]
  kcat: 96 s⁻¹ and 96 ± 7 s⁻¹
SXA [3]
  Km: 2700 µM
SXA [4]
  Km: 3120 ± 210 µM
  kcat: approximately 81.5 s^−1
  factor by which kcat of SXA is higher than that of the Bacillus pumilus enzyme: 27
  kcat lower than previous determination (Example 1): 15%
  kcat/Km lower than previous determination (Example 1): 25%
[5]; [7]
  kcat: 81.5 ± 2.0 s⁻¹
[5]
  factor by which kcat is higher than that of the Bacillus pumilus enzyme: 27
[5]; [9]
  kcat: approximately 81.5 sec^−1

B1: Selenomonas ruminantium GA192 β-D-xylosidase (SXA, parent SEQ ID NO: 2) variant D127A (Pseudoselenomonas ruminantium; D127A) (protein)
chain: MNIQNPVLKGFNPDPSIVRAGDDYYIATSTFEWFPGVQIHHSKDLVHWHLVAHPLSTTEFLDMKGNPDSGGIWAPDLSYADGKFWLIYTDVKVVDGMWKDCHNYLTTAEDIKGPWSKPILLNGAGFAASLFHDPSGKKYLVNMYWDQRVYHHNFYGIALQEYSVAEEKLIGKPEIIYKGTDIAYTEGPHLYYINDMYYLMTAEGGTTYQHSETIARSKTIHGPYEIQPDYPLLSAWKEVHNPLQKCGHASLVETQNGQWYLAHLTGRPLPAPAGFPSREREQHAFCPLGRETAIQKIEWQDGWPVVVGGQQGSLEVEAPDLPQQEWAPTYEERDDFDKDTLNINFQTLRIPFSEHLGSLTARPGFLRLYGRESLQSKFTQAHIARRWQSFNFDAGTSVEFSPNSFQQMAGLTCYYNTENWSSIHVTWNEEKGRIIDLVTADNGTFSMPLAGAEIPIPDEVKTVHFKVSVRGRIYQYAYSFDGETFHTLPIELPSWKLSDDYVRGGGFFTGAFVGINAIDITGTALPADFDYFTYKELD
[6]
  Km: 881 ± 59 µM

B2: Selenomonas ruminantium GA192 β-D-xylosidase (SXA, parent SEQ ID NO: 2) variant H248A (Pseudoselenomonas ruminantium; H248A) (protein)
chain: MNIQNPVLKGFNPDPSIVRAGDDYYIATSTFEWFPGVQIHHSKDLVHWHLVAHPLSTTEFLDMKGNPDSGGIWAPDLSYADGKFWLIYTDVKVVDGMWKDCHNYLTTAEDIKGPWSKPILLNGAGFDASLFHDPSGKKYLVNMYWDQRVYHHNFYGIALQEYSVAEEKLIGKPEIIYKGTDIAYTEGPHLYYINDMYYLMTAEGGTTYQHSETIARSKTIHGPYEIQPDYPLLSAWKEVHNPLQKCGAASLVETQNGQWYLAHLTGRPLPAPAGFPSREREQHAFCPLGRETAIQKIEWQDGWPVVVGGQQGSLEVEAPDLPQQEWAPTYEERDDFDKDTLNINFQTLRIPFSEHLGSLTARPGFLRLYGRESLQSKFTQAHIARRWQSFNFDAGTSVEFSPNSFQQMAGLTCYYNTENWSSIHVTWNEEKGRIIDLVTADNGTFSMPLAGAEIPIPDEVKTVHFKVSVRGRIYQYAYSFDGETFHTLPIELPSWKLSDDYVRGGGFFTGAFVGINAIDITGTALPADFDYFTYKELD
[6]
  Km: 1050 ± 70 µM
